Here are results for one substance from patent US20200289482A1, “CYSTIC FIBROSIS TRANSMEMBRANE CONDUCTANCE REGULATOR MODULATORS FOR TREATING AUTOSOMAL DOMINANT POLYCYSTIC KIDNEY DISEASE” (The Johns Hopkins University, priority 2017, published 2020).

One test deals with NHE3. In words: NHE3 activity in PN cells. Type of test: cell-based, mouse. The settings on record: PN cells treated with VX-809 vs PN cells. The protocol: FIG. 15A and FIG. 15B show NHE3 activity in PN and PH cells (FIG. 15A and FIG. 15B) and NHE3 activity in PN cells treated with VX-809.
FIG. 16A, FIG. 16B, and FIG. 16C show NHE activity in PN/PH cells or PN cells treated with VX-809;
The expression and activity of […] were evaluated. Specifically, NHE3 expression was evaluated in PN cells that were treated with VX-809. […] was also studied in PN, PH, and PN cells treated with VX-809. […] Next, NHE3 activity was evaluated in PN/PH cells or PN cells treated with VX-809. NHE3 activity was increased in PN cells treated with VX-809, as compared to PN cells (FIG. 16A). NHE3 activity was higher in control PH cells than in PN cells (FIG. 16B). […] NHE3 activity was increased in both VX-809 treated PN cells and control PH cells, as compared to control PN cells (FIG. 16C).

In test [1] the test system is intracellular Ca2+ in PN cells. The test is described as follows: Fura-2 Ca2+ imaging assay. Type of test: cell-based, mouse. The conditions noted are these: VX-809 10 μM 16 h. How it is done:
FIG. 5A, FIG. 5B, FIG. 5C, FIG. 5D, FIG. 5E, and FIG. 5F show intracellular Ca2+ (F340/F380) levels obtained by ratiometric Fura-2 AM analysis of PN cells treated with VX-809 (10 μM) for 16 h. (FIG. 5A) Representative traces of intracellular Ca2+ release in response to ATP (100 μM) in PN cells and cells treated with VX-809 (10 μM). (FIG. 5B, FIG. 5C) Graphs summarizing resting calcium levels (FIG. 5B) and the average amplitude of Ca2+ release (FIG. 5C) in response to ATP. (FIG. 5D) Representative traces of ER Ca2+ release in response to thapsigargin (4 μM) in PN cells treated with VX-809. (FIG. 5E, FIG. 5F) Resting calcium levels (FIG. 5E) and the average amplitude of Ca2+ release (FIG. 5F) in response to thapsigargin. Amplitude was measured as the […] of the signal base to peak Δf/f. Significance between the two groups was analyzed using Student's t-test, n=4-5). *P<0.05, ***P<0.001.
Ca^2+-dependent signal transduction is associated with cyst formation (26), (29). […] To address the effect of VX-809 on this Ca^2+ release, the cells were treated with thapsigargin, a specific inhibitor of the ER Ca^2+-ATPase which, when applied, allows Ca^2+ to leak out of the ER through independent Ca^2+-permeable pathways (33). A small effect of VX-809 on resting Ca^2+ was observed.
On Day 5 of cell culture, the cells were loaded with the cell-permeant acetoxymethyl (AM) ester of the calcium indicator fura-2 (fura-2/AM) at 37° C. for 90 min. Measurements were made on a Zeiss inverted microscope equipped with a Sutter Lambda 10-2 controller and filter wheel assembly. For ATP stimulation experiments, the cells were exposed to 100 μM ATP diluted in the imaging buffer. A Zeiss FluorArc mercury lamp was used to excite the cells at 340 and 380 nm, and the emission response was measured at 510 nm. Cell fluorescence was measured in response to excitation for 1000 ms at 340 nm and 200 ms at 380 nm once every 4 s. Image acquisition, image analysis, and filter wheel control were performed with IPLab software (see (25)).

In the next test the test system is PC2. In words: Western blot of PC2 expression. Type of test: cell-based, mouse. The settings on record: PN cells, endogenous PC2. How it is done: FIG. 6A and FIG. 6B show PC2 expression is unchanged by VX-809. (FIG. 6A) Western blot showing expression of PC2 in treated or control cells. (FIG. 6B) Columns represent the means±SEM of the PC2 expression. The data were analyzed by non-parametric t-test. The experiment was repeated six (control) or seven times;
PC2 is a 968-amino acid protein with an approximate molecular weight of 100 kDa in its monomeric form. To determine whether VX-809 affects PC2 protein expression, western blot experiments were conducted on PN cells to determine the resting levels of endogenous PC2.
(Immunoblotting shows a protein as a band on a membrane.)

For the next test, the system named is GRP78. In words: Western blot of ER stress marker GRP78 in kidney tissue. Type of test: in vivo, mouse. The conditions noted are these: cyst induced pkd−/− mice, VX-809 30 mg/kg BW. The protocol: FIG. 11A. FIG. 11B, FIG. 11C, FIG. 11D, and FIG. 11E show expression of ER stress markers GRP78, ErO1, and GADD in Pkd1^−/− mice treated with VX-809. (FIG. 11A & FIG. 11D) Representative Western blot images of GRP78, ErO1, and GADD in lysates of kidney tissue from no cyst induced (ND), cyst induced with doxycycline (D) or cyst induced pkd−/− mice treated with VX-809 (D+VX-809) 30 mg/kg BW. (FIG. 11B, FIG. 11C and FIG. 11E) Columns represent averages±standard errors of GRP78, ErO1, and GADD153 expression. Data were analyzed by non-parametric t-test. n=4 for each treated and control groups. Black lines between lanes represent representative experiments from the same gel but loaded in different lanes. **P<0.01, ***P<0.001;
Given that VX-809 alters an ensemble of Hsps, it was evaluated whether VX-809 alters proteins associated with ER stress. To address this question, the levels of three ER stress-associated proteins were measured, 78-kDa glucose-regulated protein (GRP78), ER oxidoreductin 1 (Ero1) and DNA damage-inducible protein 3 (GADD153), also known as C/EBP homologous protein (CHOP) (37). The results are depicted in FIG. 11 show no changes in GRP78 or Ero1 in response to VX-809.

In the case of lumacaftor [VX-809], the NHE3 activity result in the test with NHE3 was “significantly increased”. The “resting Ca2+” value in test [1] is “small reduction in resting Ca^2+”. In addition, the “intracellular Ca2+ movement in response to ATP” value in test [1] (ATP 100 μM) is reported as “no effect on intracellular Ca^2+ movement in response to ATP”. The “thapsigargin-induced release of Ca2+ from the ER” value in test [1] (thapsigargin 4 μM) is given as “dramatically reduced the thapsigargin-induced release of Ca^2+ from the ER”. Also, the PC2 expression result in the test with PC2 is “no effect on PC2 expression”. The GRP78 expression result in the test on GRP78 is listed as “no changes”.
